Test results as given in PMC11212140, “Molecular Bidents with Two Electrophilic Warheads as a New Pharmacological Modality” (ACS Central Science, 2024).

Columns and labels:
Experiment in all cases: KiNativ profiling in H3255 cells
Type in all cases: cell-based, human
PIP5K3 = test system: T1, PIP5K3; details: 2.5 µM; ATP; GGKSGAAFYATEDDRFILK
T1 construct: purchased ActivX Biosciences (KiNativ)
Method: (§1) treatment. Cell viability was determined by using CellTiter-Glo (Promega #G7571) according to the manufacturer’s instructions, measuring luminescence using an Envision plate-reader (PerkinElmer Inc.). Dose-response curves were generated using non-linear regression curve fit in GraphPad Prism 9.2.0(GraphPad Software).
(§2) Cellular target engagement assays
(§3) After 6 hours treatment, cells were pelleted, washed with PBS once and lysed with IP lysis buffer (25mMTris-HCl pH 7.4, 150mM NaCl, 1 mM EDTA, 1% NP-40 and 5% glycerol) (Thermo Fisher Scientific, Cat#87788) containing protease/phosphatase inhibitor cocktail (Roche). The protein concentrations were measured by BCA analysis (Pierce). Cell lysates were incubated with 1 μM of biotin conjugated probe (bio-Osimertinib or bio-ZNL-0013) at 4 ℃ overnight, and incubated for 3 more hours at room temperature. Lysates with probe were then incubated with streptavidin beads (Thermo Fisher, #20349) for 2 hours at 4 ℃. The protein-probe complexes on the beads were then subjected to immunoblotting.
(§4) H3255 cells were plated with 6.5x10^6 per condition in fresh media in 15 cm plates and treated the 80% confluency for 2 hours with DMSO or 2.5 μM of ZNL-0056. To harvest cells, plates were washed 3 times with cold PBS, then collected by scraping into 4 mL of cold PBS containing protease and phosphatase inhibitors. Cells were pelleted by centrifugation at 1350 g at 4 ℃ for 5 minutes and immediately frozen in liquid nitrogen. The frozen samples were sent to ActivX Biosciences (La Jolla, CA) for the remainder of the KiNativ profiling experiment4.
(§5) Protein expression and purification
(§6) Human EGFR kinase domain (residues 696-1022) with T790M and V948R mutations was cloned with an N-terminal, protease cleavable His -GST tag. Recombinant protein was expressed in SF9 insect cells using baculovirus generated from the pFastBac system (Thermo Fisher) .
(§7) Briefly, cells at a density of ~2x10^6 cells/mL were infected with 1% (v/v) virus stock and grown for ~72 hours before harvesting and freezing the cell pellet . Infected cells were lysed in buffer A (50 mM Tris pH 8.0, 500 mM NaCl, 5% glycerol, 0.5 mM Tris(2-carboxyethyl)phosphine [TCEP]), ultracentrifuged at >200,000 rcf for 1 h, and the supernatant flo wed through Ni-NTA resin by gravity. The resin was washed with buffer A supplemented with 40 mM imidazole by […]

IRE1 = test system: T2, IRE1; details: 2.5 µM; Lys2; DLKPHNILISMPNAHGK
T2 construct: purchased ActivX Biosciences (KiNativ)
Method: as §1, §2, §3, §4, §5, §6, §7

DGKA = test system: T3, DGKA; details: 2.5 µM; ATP; IDPVPNTHPLLVFVNPKSGGK
T3 construct: purchased ActivX Biosciences (KiNativ)
Method: as §1, §2, §3, §4, §5, §6, §7

NuaK1 = test system: T4, NuaK1; details: 2.5 µM; Lys1; VVAIKSIR
T4 construct: purchased ActivX Biosciences (KiNativ)
Method: as §1, §2, §3, §4, §5, §6, §7

MLK1 = test system: T5, MLK1; details: 2.5 µM; Lys2; DLKSSNILILQK
T5 construct: purchased ActivX Biosciences (KiNativ)
Method: as §1, §2, §3, §4, §5, §6, §7

MARK3, MARK4 = details: 2.5 µM; Lys1; EVAIKIIDK
Method: as §1, §2, §3, §4, §5, §6, §7

CHK2 = test system: T6, CHK2; details: 2.5 µM
T6 construct: purchased ActivX Biosciences (KiNativ)
Method: as §1, §2, §3, §4, §5, §6, §7

PKR = test system: T7, PKR; details: 2.5 µM
T7 construct: purchased ActivX Biosciences (KiNativ)
Method: as §1, §2, §3, §4, §5, §6, §7

AurA, AurB, AurC = details: 2.5 µM; ATP Loop; GKFGNVYLAR
Method: as §1, §2, §3, §4, §5, §6, §7

MAP2K7 = test system: T8, MAP2K7; details: 2.5 µM; Lys2; DVKPSNILLDER
T8 construct: purchased ActivX Biosciences (KiNativ)
Method: as §1, §2, §3, §4, §5, §6, §7

MRCKb = test system: T9, MRCKb; details: 2.5 µM; Lys2; DIKPDNVLLDVNGHIR
T9 construct: purchased ActivX Biosciences (KiNativ)
Method: as §1, §2, §3, §4, §5, §6, §7

FRK = test system: T10, FRK; details: 2.5 µM
T10 construct: purchased ActivX Biosciences (KiNativ)
Method: as §1, §2, §3, §4, §5, §6, §7

PIP4K2C = test system: T11, PIP4K2C; details: 2.5 µM, ATP
T11 construct: purchased ActivX Biosciences (KiNativ)
Method: as §1, §2, §3, §4, §5, §6, §7

BARK1 = test system: T12, BARK1; details: 2.5 µM; Lys2; DLKPANILLDEHGHVR
T12 construct: purchased ActivX Biosciences (KiNativ)
Method: as §1, §2, §3, §4, §5, §6, §7

MARK2 = test system: T13, MARK2; details: 2.5 µM; Lys1; EVAVKIIDKTQLNSSSLQK
T13 construct: purchased ActivX Biosciences (KiNativ)
Method: as §1, §2, §3, §4, §5, §6, §7

CaMK2d = test system: T14, CaMK2d; details: 2.5 µM; Lys1; IPTGQEYAAKIINTKK
T14 construct: purchased ActivX Biosciences (KiNativ)
Method: as §1, §2, §3, §4, §5, §6, §7

DRAK1, DRAK2 = details: 2.5 µM; ATP Loop; GKFAVVR
Method: as §1, §2, §3, §4, §5, §6, §7

MAP3K5 = test system: T15, MAP3K5; details: 2.5 µM; Lys2; DIKGDNVLINTYSGVLK
T15 construct: purchased ActivX Biosciences (KiNativ)
Method: as §1, §2, §3, §4, §5, §6, §7

GCK = test system: T16, GCK; details: 2.5 µM
T16 construct: purchased ActivX Biosciences (KiNativ)
Method: as §1, §2, §3, §4, §5, §6, §7

STLK6 = test system: T17, STLK6; details: 2.5 µM; Lys1; HTPTGTLVTIKITNLENCNEER
T17 construct: purchased ActivX Biosciences (KiNativ)
Method: as §1, §2, §3, §4, §5, §6, §7

RSK1 domain2 = test system: T18, RSK1 domain2; details: 2.5 µM; Lys2; DLKPSNILYVDESGNPECLR
T18 construct: RSK1 domain2; purchased ActivX Biosciences (KiNativ)
Method: as §1, §2, §3, §4, §5, §6, §7

MARK1, MARK2 = details: 2.5 µM; Lys1; EVAVKIIDK
Method: as §1, §2, §3, §4, §5, §6, §7

HER2/ErbB2 = test system: T19, HER2/ErbB2; details: 2.5 µM
T19 construct: purchased ActivX Biosciences (KiNativ)
Method: as §1, §2, §3, §4, §5, §6, §7

PIP4K2B = test system: T20, PIP4K2B; details: 2.5 µM; ATP; AKDLPTFKDNDFLNEGQK
T20 construct: purchased ActivX Biosciences (KiNativ)
Method: as §1, §2, §3, §4, §5, §6, §7

[1] = Activation Loop, IGDFGLVTSLKNDGKR
[2] = Lys1, LGSGQFGEVWEGLWNNTTPVAVKTLKPGSMDPNDFLR
[3] = Activation Loop, LLDIDETEYHADGGKVPIK

Compound	Inhibition (PIP5K3) [%]	Inhibition (IRE1) [%]	Inhibition (DGKA) [%]	Inhibition (NuaK1) [%]	Inhibition (MLK1) [%]	Inhibition (MARK3, MARK4) [%]	Inhibition (CHK2; Lys1, VAIKIISK) [%]	Inhibition (CHK2; Lys2, DLKPENVLLSSQEEDCLIK) [%]	Inhibition (PKR; [1]) [%]	Inhibition (PKR; Lys2, DLKPSNIFLVDTK) [%]	Inhibition (AurA, AurB, AurC) [%]	Inhibition (MAP2K7) [%]	Inhibition (MRCKb) [%]	Inhibition (FRK; Activation Loop, HEIKLPVK) [%]	Inhibition (FRK; [2]) [%]	Inhibition (PIP4K2C; TLVIKEVSSEDIADMHSNLSNYHQYIVK) [%]	Inhibition (PIP4K2C; VKELPTLKDMDFLNK) [%]	Inhibition (BARK1) [%]	Inhibition (MARK2) [%]	Inhibition (CaMK2d) [%]	also measured
C=CC(=O)Nc1cc(C(=O)Nc2nc3cccc(C)c3n2[C@@H]2CCCCN(C(=O)C=C)C2)cs1 [ZNL-0056]	20.7	-29.1	14.0	17.0	-4.3	16.2	23.8	13.8	11.7	0.451	2.2	90.7	14.5	-77.6	7.6	60.9	53.5	17.8	25.2	-4.1	Inhibition (DRAK1, DRAK2): 46.6%; Inhibition (MAP3K5): -61.4%; Inhibition (GCK; Lys1, DTVTSELAAVKIVK): -6.8%; Inhibition (GCK; Lys2, DIKGANLLLTLQGDVK): 0.9%; Inhibition (STLK6): 16.7%; Inhibition (RSK1 domain2): 11.8%; Inhibition (MARK1, MARK2): 11.4%; Inhibition (HER2/ErbB2; [3]): 65.9%; Inhibition (HER2/ErbB2; Lys1, GIWIPDGENVKIPVAIKVLR): 60.7%; Inhibition (PIP4K2B): 16.6%
C=CC(=O)Nc1cc(Nc2nccc(-c3cn(C)c4ccccc34)n2)c(OC)cc1N(C)CCN(C)C [Osimertinib, osimertinib, reference compound]	49.0	13.6	-5.7	2.8	34.9	-12.5	17.8	11.1	-12.9	6.2	20.5	-1.4	-26.5	-27.9	12.8	59.0	55.5	-15.7	7.8	-3.1	Inhibition (DRAK1, DRAK2): 13.6%; Inhibition (MAP3K5): 21.0%; Inhibition (GCK; Lys1, DTVTSELAAVKIVK): -23.8%; Inhibition (GCK; Lys2, DIKGANLLLTLQGDVK): 15.4%; Inhibition (STLK6): 12.6%; Inhibition (RSK1 domain2): -13.9%; Inhibition (MARK1, MARK2): -15.4%; Inhibition (HER2/ErbB2; [3]): 82.4%; Inhibition (HER2/ErbB2; Lys1, GIWIPDGENVKIPVAIKVLR): 89.1%; Inhibition (PIP4K2B): -4.2%
